According to ChEMBL document CHEMBL1240486, “Novel N-methylated 8-oxoisoguanines from Pacific sponges with diverse neuroactivities” (J Med Chem, 2010):
The source made the active and inactive calls. The calls are words filed in the database; no cut-off is given here.

What was measured:
Mus musculus [1] = experiment: Neurotoxicity in ddY mouse assessed as changes in behavioral activity at 100 nmol/mouse, icv measured for 60 mins; format: toxicity, organism-based; details: in vivo, icv_or_intrathecal, 1 h
Mus musculus [2] = experiment: Neurotoxicity in ddY mouse assessed as changes in behavioral activity at 30 to 110 nmol/mouse, icv measured for 60 mins; format: toxicity, organism-based; details: in vivo, icv_or_intrathecal, 1 h
Mus musculus [3] = experiment: Neurotoxicity in ddY mouse assessed as induction of convulsions at 0.05 to 0.1 umol, icv measured for 60 mins; format: toxicity, organism-based; details: in vivo, icv_or_intrathecal, 1 h
Mus musculus [4] = experiment: Neurotoxicity in icv dosed ddY mouse assessed as 50% maximal convulsant dose measured for 60 mins; format: toxicity, organism-based; details: in vivo, icv_or_intrathecal, 1 h
Mus musculus [5] = experiment: Neurotoxicity in ddY mouse assessed as changes in behavioral activity at 14 nmol/mouse, icv measured for 60 mins; format: toxicity, organism-based; details: in vivo, icv_or_intrathecal, 1 h
Rattus norvegicus [6] = species on record: Rattus norvegicus; experiment: Displacement of [3H]flunitrazepam from benzodiazepine binding site of GABAA receptor in rat brain membrane at <10 uM; format: cell membranes
Rattus norvegicus [7] = species on record: Rattus norvegicus; experiment: Inhibition of GABAA receptor-mediated inhibitory synaptic currents in rat hippocampal neurons assessed as sEPSC bursts at 10 uM measured after compound washout by whole-cell voltage clamp assay; format: tissue-based; details: Hippocampus
[8] = target: 5-hydroxytryptamine receptor 1E (Homo sapiens, UniProt P28566); experiment: Binding affinity to 5HT1E receptor
Rattus norvegicus [9] = species on record: Rattus norvegicus; experiment: Displacement of [3H]muscimol from GABA binding site of GABAA receptor in rat brain membrane at <10 uM; format: cell membranes
Rattus norvegicus [10] = species on record: Rattus norvegicus; experiment: Inhibition of GABAA receptor-mediated postsynaptic current in rat hippocampal neurons at 30 uM after 5 mins by whole-cell voltage clamp assay; format: tissue-based; details: Hippocampus
[11] = target: T1, Alpha-1D adrenergic receptor (Homo sapiens, UniProt P25100); experiment: Binding affinity to adrenergic Alpha-1D receptor
T1 sequence (P25100 whole entry): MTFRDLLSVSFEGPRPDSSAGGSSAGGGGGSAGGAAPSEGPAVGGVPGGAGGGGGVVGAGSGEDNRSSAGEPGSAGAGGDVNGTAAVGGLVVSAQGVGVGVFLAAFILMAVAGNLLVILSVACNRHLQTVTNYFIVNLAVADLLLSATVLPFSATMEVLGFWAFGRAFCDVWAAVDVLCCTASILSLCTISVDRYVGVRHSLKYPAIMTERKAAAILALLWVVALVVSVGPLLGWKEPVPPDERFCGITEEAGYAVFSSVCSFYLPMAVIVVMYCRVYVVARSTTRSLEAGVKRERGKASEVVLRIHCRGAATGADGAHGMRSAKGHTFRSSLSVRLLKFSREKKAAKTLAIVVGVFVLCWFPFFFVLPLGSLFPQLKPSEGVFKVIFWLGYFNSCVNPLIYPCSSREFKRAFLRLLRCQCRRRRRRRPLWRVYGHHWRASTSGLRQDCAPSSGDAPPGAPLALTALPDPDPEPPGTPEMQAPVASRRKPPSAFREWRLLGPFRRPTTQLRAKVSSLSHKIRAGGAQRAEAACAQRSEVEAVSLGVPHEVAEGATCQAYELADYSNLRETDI

[12] = Inhibition of GABAA receptor-mediated miniature inhibitory postsynaptic current in rat hippocampal neurons at 10 uM after 5 mins by whole-cell voltage clamp assay relative to baseline in presence of nonselective adenosine receptor antagonist CGS-15943; format: functional; details: Hippocampus
[13] = target: GABA A receptor alpha-4/beta-3/gamma-2 (Homo sapiens) (UniProt P18507+P28472+P48169); experiment: Antagonist activity at recombinant alpha-4-beta-3-gamma-2S receptor expressed in HEK 293-T/17 cells assessed as GABA-induced current at 30 uM by whole-cell recording relative to control; format: functional, cell-based; design: scale not given: the % may be the effect or the level left; details: HEK293
Mus musculus [14] = species on record: Mus musculus; experiment: Inhibition of GABAA receptor-mediated inhibitory synaptic currents in juvenile mouse CA1 neurons at 30 uM by whole-cell voltage clamp assay in presence of prazosin
Rattus norvegicus [15] = species on record: Rattus norvegicus; experiment: Effect on GABAA receptor-mediated spontaneous excitatory postsynaptic current in rat hippocampal neurons assessed as frequency of sEPSC bursts at 10 uM after 5 mins by whole-cell voltage clamp assay (reference value: 0.84 +/- 0.12 Hz); format: tissue-based; details: Hippocampus
[16] = target: Glutamate NMDA receptor (Rattus norvegicus) (UniProt P35439+Q00959+Q00960+Q00961+Q62645+Q8VHN2+Q9R1M7); experiment: Displacement of [3H]CGP39653 from NMDA receptor in Sprague-Dawley rat synaptic membranes at 10 uM after 1 hr; format: cell membranes; details: Membrane
[17] = target: Kappa-type opioid receptor (Homo sapiens, UniProt P41145); experiment: Binding affinity to kappa opioid receptor
Mu-type opioid receptor = Mu-type opioid receptor (Homo sapiens, UniProt P35372); experiment: Binding affinity to mu opioid receptor
[18] = target: Neuronal acetylcholine receptor; alpha3/beta2 (Homo sapiens, UniProt P17787+P32297); experiment: Binding affinity to nicotinic alpha3beta2 receptor receptor; format: protein-complex assay
[19] = target: T2, Alpha-1B adrenergic receptor (Homo sapiens, UniProt P35368); experiment: Binding affinity to adrenergic Alpha-1B receptor
T2 sequence (P35368 whole entry): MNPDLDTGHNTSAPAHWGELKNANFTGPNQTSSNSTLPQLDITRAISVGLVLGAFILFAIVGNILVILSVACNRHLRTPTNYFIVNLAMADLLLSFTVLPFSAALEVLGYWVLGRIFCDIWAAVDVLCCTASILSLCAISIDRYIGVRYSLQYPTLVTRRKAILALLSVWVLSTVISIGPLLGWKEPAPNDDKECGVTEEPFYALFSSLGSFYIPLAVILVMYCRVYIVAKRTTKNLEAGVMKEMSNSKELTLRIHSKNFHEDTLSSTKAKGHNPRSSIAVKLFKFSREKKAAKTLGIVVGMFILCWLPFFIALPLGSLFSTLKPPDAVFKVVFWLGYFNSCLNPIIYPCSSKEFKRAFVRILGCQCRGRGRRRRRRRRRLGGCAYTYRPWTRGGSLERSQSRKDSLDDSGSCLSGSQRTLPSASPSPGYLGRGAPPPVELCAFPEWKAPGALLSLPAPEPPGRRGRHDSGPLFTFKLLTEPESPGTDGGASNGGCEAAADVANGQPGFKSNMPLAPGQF

Rattus norvegicus [20] = species on record: Rattus norvegicus; experiment: Inhibition of GABAA receptor-mediated inhibitory synaptic currents in rat hippocampal neurons assessed as sEPSC bursts at 10 uM after 5 mins by whole-cell voltage clamp assay (reference value: 5.6 +/- 1.6 Hz); format: tissue-based; details: Hippocampus
Mus musculus [21] = experiment: Neurotoxicity in ddY mouse assessed as changes in behavioral activity at >4 nmol/mouse, icv measured for 60 mins; format: toxicity, organism-based; details: in vivo, icv_or_intrathecal, 1 h
[22] = target: T3, Alpha-1A adrenergic receptor (Homo sapiens, UniProt P35348); experiment: Binding affinity to adrenergic alpha1A receptor
T3 sequence (P35348 whole entry): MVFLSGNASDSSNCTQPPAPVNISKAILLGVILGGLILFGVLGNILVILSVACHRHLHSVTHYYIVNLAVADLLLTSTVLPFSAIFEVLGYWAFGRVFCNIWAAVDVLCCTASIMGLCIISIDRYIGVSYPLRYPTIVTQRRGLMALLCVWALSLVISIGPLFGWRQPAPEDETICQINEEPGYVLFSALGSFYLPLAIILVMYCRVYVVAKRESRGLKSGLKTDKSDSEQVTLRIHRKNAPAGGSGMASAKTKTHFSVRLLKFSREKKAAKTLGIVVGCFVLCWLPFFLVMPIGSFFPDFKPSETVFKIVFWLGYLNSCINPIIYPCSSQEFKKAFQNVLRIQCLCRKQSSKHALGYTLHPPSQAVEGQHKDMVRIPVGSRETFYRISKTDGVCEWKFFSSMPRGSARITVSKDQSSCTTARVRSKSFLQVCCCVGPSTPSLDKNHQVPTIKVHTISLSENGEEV

Mus musculus [23] = species on record: Mus musculus; experiment: Inhibition of excitatory postsynaptic current in juvenile mouse CA1 neurons at 30 uM by whole-cell voltage clamp assay
Mus musculus [24] = species on record: Mus musculus; experiment: Inhibition of GABAA receptor-mediated inhibitory synaptic currents in juvenile mouse CA1 neurons at 30 uM by whole-cell voltage clamp assay
[25] = target: Glutamate receptor 4 (Homo sapiens) (UniProt P48058); experiment: Antagonist activity at recombinant GluA4 receptor expressed in HEK 293-T/17 cells assessed as glutamate-induced current at 100 uM by whole-cell recording relative to control; format: functional, cell-based; design: scale not given: the % may be the effect or the level left; details: HEK293
Mus musculus [26] = experiment: Neurotoxicity in ddY mouse assessed as changes in behavioral activity at 1 nmol/mouse, icv measured for 60 mins; format: toxicity, organism-based; details: in vivo, icv_or_intrathecal, 1 h
Rattus norvegicus [27] = species on record: Rattus norvegicus; experiment: Inhibition of GABAA receptor-mediated miniature excitatory postsynaptic current in rat hippocampal neurons assessed as EPSC bursts at 10 uM after 5 mins by whole-cell voltage clamp assay (Rvb 0.69 +/- 0.21 Hz); format: tissue-based; details: Hippocampus
Rattus norvegicus [28] = species on record: Rattus norvegicus; experiment: Displacement of [3H]kainate from kainate receptor in Sprague-Dawley rat synaptic membranes at 10 uM after 1 hr; format: cell membranes; details: Membrane
Rattus norvegicus [29] = species on record: Rattus norvegicus; experiment: Displacement of [3H]AMPA from AMPA receptor in Sprague-Dawley rat synaptic membranes at 10 uM after 1 hr; format: cell membranes; details: Membrane
Mus musculus [30] = species on record: Mus musculus; experiment: Inhibition of GABAA receptor-mediated inhibitory synaptic currents in juvenile mouse CA1 neurons at 30 uM by whole-cell voltage clamp assay in presence of SCH-50911
Rattus norvegicus [31] = species on record: Rattus norvegicus; experiment: Inhibition of GABAA receptor-mediated miniature inhibitory postsynaptic current in rat hippocampal neurons at 10 uM after 5 mins by whole-cell voltage clamp assay relative to baseline; format: tissue-based; details: Hippocampus
Rattus norvegicus [32] = species on record: Rattus norvegicus; experiment: Inhibition of GABAA receptor-mediated postsynaptic current in rat hippocampal neurons at 10 uM after 5 mins by whole-cell voltage clamp assay; format: tissue-based; details: Hippocampus
Mus musculus [33] = experiment: Toxicity in ddY mouse assessed as death at 0.1 umol, icv; format: organism-based; details: in vivo, icv_or_intrathecal
Mus musculus [34] = experiment: Neurotoxicity in ddY mouse assessed as induction of occasional tonic extension of forelimbs and weakness of lower bodies at 0.1 umol, icv measured for 60 mins; details: in vivo, icv_or_intrathecal, 1 h
Mus musculus [35] = experiment: Neurotoxicity in ddY mouse assessed as changes in behavioral activity at 25 to 50 nmol/mouse, icv measured for 60 mins; format: toxicity, organism-based; details: in vivo, icv_or_intrathecal, 1 h
Mus musculus [36] = experiment: Neurotoxicity in ddY mouse assessed as changes in behavioral activity at >75 nmol/mouse, icv measured for 60 mins; format: toxicity, organism-based; details: in vivo, icv_or_intrathecal, 1 h

Chain of Kappa-type opioid receptor (P41145 whole entry): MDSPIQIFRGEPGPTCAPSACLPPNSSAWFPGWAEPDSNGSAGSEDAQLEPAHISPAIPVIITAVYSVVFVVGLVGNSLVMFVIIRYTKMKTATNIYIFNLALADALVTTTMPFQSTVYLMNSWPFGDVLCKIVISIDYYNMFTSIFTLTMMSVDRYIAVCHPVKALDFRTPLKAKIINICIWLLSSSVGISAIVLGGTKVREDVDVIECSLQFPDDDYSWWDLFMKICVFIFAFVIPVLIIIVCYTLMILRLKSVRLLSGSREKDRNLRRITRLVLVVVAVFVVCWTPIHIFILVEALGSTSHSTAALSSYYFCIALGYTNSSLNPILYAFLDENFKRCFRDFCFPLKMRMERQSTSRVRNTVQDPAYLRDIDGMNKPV
Chain of Neuronal acetylcholine receptor; alpha3/beta2 (P17787 whole entry): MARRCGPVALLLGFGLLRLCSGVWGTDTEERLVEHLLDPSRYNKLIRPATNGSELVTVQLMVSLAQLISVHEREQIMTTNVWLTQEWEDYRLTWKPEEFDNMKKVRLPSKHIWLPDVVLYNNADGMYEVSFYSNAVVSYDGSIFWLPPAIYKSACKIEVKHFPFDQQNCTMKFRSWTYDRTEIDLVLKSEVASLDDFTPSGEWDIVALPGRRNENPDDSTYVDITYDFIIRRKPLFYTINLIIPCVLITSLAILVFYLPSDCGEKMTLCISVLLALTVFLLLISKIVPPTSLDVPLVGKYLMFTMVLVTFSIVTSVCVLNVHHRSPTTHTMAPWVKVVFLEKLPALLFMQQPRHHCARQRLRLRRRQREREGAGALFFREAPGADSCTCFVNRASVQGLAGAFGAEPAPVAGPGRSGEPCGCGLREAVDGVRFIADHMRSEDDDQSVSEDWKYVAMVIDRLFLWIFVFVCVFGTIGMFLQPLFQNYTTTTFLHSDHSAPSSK
Chain of Neuronal acetylcholine receptor; alpha3/beta2 (P32297 whole entry): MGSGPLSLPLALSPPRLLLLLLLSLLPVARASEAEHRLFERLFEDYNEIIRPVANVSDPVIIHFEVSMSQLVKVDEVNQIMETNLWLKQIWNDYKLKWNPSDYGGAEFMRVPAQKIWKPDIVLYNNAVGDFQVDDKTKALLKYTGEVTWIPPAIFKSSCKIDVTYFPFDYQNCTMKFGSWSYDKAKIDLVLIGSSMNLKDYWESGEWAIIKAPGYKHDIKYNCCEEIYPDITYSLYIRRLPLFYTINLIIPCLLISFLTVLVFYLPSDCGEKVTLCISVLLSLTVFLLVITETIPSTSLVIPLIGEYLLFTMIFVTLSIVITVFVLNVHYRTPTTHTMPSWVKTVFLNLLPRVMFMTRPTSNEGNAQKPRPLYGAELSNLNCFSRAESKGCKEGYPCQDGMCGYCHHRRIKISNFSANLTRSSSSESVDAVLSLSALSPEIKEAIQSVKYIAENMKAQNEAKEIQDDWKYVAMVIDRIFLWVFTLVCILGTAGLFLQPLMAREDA
Chain of Glutamate receptor 4 (Homo sapiens) (P48058 whole entry): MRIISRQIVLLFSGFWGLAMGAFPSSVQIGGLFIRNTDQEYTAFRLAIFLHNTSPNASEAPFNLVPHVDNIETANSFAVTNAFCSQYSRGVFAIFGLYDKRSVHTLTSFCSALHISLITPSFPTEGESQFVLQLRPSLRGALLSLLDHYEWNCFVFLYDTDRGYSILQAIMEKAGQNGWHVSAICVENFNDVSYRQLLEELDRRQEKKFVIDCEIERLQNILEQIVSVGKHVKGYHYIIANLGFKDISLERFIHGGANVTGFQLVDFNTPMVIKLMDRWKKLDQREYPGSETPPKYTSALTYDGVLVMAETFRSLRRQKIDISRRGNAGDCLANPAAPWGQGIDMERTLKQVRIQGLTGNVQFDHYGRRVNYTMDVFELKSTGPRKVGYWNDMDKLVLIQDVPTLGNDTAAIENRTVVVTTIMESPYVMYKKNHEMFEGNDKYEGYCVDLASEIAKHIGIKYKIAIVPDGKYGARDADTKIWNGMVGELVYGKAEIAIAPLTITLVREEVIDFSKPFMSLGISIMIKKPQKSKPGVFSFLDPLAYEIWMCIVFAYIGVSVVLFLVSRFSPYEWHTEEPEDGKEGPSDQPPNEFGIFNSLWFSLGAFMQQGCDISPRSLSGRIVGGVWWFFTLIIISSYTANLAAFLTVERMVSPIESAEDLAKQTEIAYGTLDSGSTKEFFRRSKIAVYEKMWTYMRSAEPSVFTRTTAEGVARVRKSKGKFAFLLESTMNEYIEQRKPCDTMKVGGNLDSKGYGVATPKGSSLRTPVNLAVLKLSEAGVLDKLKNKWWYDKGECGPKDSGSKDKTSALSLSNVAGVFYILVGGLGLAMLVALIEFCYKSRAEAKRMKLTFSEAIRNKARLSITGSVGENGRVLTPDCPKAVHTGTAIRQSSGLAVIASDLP
Chain of 5-hydroxytryptamine receptor 1E (P28566 whole entry): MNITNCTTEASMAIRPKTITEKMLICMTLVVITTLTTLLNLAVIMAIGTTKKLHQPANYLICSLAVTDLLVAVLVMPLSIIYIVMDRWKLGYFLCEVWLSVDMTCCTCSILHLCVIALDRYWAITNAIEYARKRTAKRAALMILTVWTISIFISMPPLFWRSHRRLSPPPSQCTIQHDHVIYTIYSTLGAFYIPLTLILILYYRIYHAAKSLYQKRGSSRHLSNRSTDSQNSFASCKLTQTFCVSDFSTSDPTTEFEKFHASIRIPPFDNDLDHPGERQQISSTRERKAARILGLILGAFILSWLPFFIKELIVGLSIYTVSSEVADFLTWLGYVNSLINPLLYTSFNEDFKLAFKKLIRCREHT
Chain of Mu-type opioid receptor (P35372 whole entry): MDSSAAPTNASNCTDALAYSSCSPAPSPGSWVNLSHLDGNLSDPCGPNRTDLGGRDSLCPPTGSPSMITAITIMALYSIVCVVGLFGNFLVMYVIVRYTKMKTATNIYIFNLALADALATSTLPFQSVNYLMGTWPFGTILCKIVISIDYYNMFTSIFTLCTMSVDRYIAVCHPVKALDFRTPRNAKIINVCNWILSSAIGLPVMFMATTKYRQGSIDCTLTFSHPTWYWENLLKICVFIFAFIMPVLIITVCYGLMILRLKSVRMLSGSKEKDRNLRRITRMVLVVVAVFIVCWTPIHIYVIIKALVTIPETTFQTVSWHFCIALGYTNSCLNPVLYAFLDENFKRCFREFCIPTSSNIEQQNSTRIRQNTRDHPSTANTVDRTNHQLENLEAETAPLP

Cl.Cn1c(=O)[nH]c(=N)c2[nH]c(=O)n(C)c21
Activity (Mus musculus [1]): Toxic

Cl.Cn1c(=O)[nH]c2c(=N)[nH]c(=O)[nH]c21
Activity (Mus musculus [2]): Toxic | Activity (Mus musculus [3]): Toxic | Activity (Mus musculus [4]): 18 nmol | Activity (Mus musculus [5]): Toxic

Cl.Cn1c(=O)[nH]c2c([nH]c(=O)n2C)c1=N
inhibition (Rattus norvegicus [6]): inactive | Activity (Rattus norvegicus [7]): 6 Hz | Ki [8]: 2900 nM | inhibition (Rattus norvegicus [9]): inactive | inhibition (Rattus norvegicus [10]): Active | Ki [11]: 497 nM | inhibition at 10 µM [12]: 29.6% | Activity [13]: 93% | inhibition (Mus musculus [14]): Active | Activity (Rattus norvegicus [15]): 0.9 Hz | inhibition [16]: inactive | Ki [17]: 1800 nM | Ki (Mu-type opioid receptor): 8900 nM | Ki [18]: 4200 nM | Ki [19]: 758 nM | Activity (Rattus norvegicus [20]): 3.6 Hz | Activity (Mus musculus [21]): Toxic | Ki [22]: 885 nM | inhibition (Mus musculus [23]): 22% | inhibition (Mus musculus [24]): 71% | Activity [25]: 100% | Activity (Mus musculus [26]): Toxic | Activity (Rattus norvegicus [27]): 0.95 Hz | inhibition (Rattus norvegicus [28]): inactive | inhibition (Rattus norvegicus [29]): inactive | inhibition (Mus musculus [30]): Active | inhibition (Rattus norvegicus [31]): 32% | Activity (Mus musculus [4]): 2.4 nmol | inhibition (Rattus norvegicus [32]): Active

Cl.Cn1c(=N)c2[nH]c(=O)[nH]c2n(C)c1=O
Activity (Mus musculus [33]): Toxic | Activity (Mus musculus [34]): Toxic | Activity (Mus musculus [35]): Toxic | Activity (Mus musculus [36]): Toxic | Activity (Mus musculus [4]): 54 nmol
